Reference: patent US20090012103A1, “SUBSTITUTED HETEROCYCLIC COMPOUNDS” (priority 2007, published 2009)

Experiments:
hERG potassium channel = hERG potassium channel (Homo sapiens, UniProt Q12809); experiment: hERG screening assay (PatchXpress patch clamp, CHO cell line)
Procedure: Compounds were screened to test their activity in blocking the hERG potassium channel. The hERG channel is heterologously expressed in a CHO (Chinese Hamster Ovary) cell line. Cells are maintained with standard tissue culture procedures and stable channel expression is maintained with 500 μg/ml G418 in the culture medium. Cells are harvested for testing on the PatchXpress automated patch clamp with Accumax (Innovative Cell Technologies, San Diego, Calif.) to isolate single cells.
The following solutions are used for electrophysiological recordings. The external solution contains: 2 mM CaCl2; 2 mM MgCl2; 4 mM KCl; 150 mM NaCl; 10 mM Glucose; 10 mM HEPES (pH 7.4 with 1M NaOH, osmolarity).
hERG channels are activated when the voltage is stepped to +20 mV from the −80 mV holding potential (see FIG. 3). During a 5 second step at +20 mV, the channels activate and then largely inactivate, so the currents are relatively small. Upon returning to −50 mV from +20 mV, hERG currents transiently become much larger as inactivation is rapidly removed and then the channel closes. The first step to −50 mV for 300 ms is used as a baseline for measuring the peak amplitude during the step to −50 mV after channel activation. The peak current at −50 mV is measured both under control conditions and after addition of compound.
All compounds are prepared as 10 mM DMSO stocks in glass vials. Stock solutions are mixed by vigorous vortexing and sonication for about 2 minutes at room temperature. For testing, compounds are diluted in glass vials using an intermediate dilution step in pure DMSO and then further diluted to working concentrations in external solution. Dilutions are prepared no longer than 20 minutes before use.
After achieving the whole-cell configuration, cells are monitored for 90 seconds to assess stability and washed with external solution for 66 seconds. The voltage protocol described above is then applied to the cells every 12 seconds and throughout the whole procedure. Only cells with stable recording parameters and meeting specified health criteria are allowed to enter the compound addition procedure.
External solution containing 0.1% DMSO (vehicle) is applied to the cells first to establish the control peak current amplitude. After allowing the current to stabilize for 3 to 5 minutes, 1 μM and then 10 μM test compounds are applied. Each compound concentration is added 4 times and cells are kept in test solution until the effect of the compound reaches steady state or for a maximum of 12 minutes. […] Washout in the external solution compartment is performed until the recovery of the current reaches steady state. Data are analyzed using DataXpress, Clampfit (Molecular Devices, Inc., Sunnyvale) and Origin 7 (Originlab Corp.)

[1] = biological target: T1, wild-type human cardiac sodium channel, hNav1.5 (Homo sapiens, UniProt Q14524); experiment: Late INa screening assay (late sodium current, PatchXpress whole cell patch clamp); format: cell-based; settings: compound at 10 μM; read-out: Late INa % blk
T1 sequence (Q14524 whole entry): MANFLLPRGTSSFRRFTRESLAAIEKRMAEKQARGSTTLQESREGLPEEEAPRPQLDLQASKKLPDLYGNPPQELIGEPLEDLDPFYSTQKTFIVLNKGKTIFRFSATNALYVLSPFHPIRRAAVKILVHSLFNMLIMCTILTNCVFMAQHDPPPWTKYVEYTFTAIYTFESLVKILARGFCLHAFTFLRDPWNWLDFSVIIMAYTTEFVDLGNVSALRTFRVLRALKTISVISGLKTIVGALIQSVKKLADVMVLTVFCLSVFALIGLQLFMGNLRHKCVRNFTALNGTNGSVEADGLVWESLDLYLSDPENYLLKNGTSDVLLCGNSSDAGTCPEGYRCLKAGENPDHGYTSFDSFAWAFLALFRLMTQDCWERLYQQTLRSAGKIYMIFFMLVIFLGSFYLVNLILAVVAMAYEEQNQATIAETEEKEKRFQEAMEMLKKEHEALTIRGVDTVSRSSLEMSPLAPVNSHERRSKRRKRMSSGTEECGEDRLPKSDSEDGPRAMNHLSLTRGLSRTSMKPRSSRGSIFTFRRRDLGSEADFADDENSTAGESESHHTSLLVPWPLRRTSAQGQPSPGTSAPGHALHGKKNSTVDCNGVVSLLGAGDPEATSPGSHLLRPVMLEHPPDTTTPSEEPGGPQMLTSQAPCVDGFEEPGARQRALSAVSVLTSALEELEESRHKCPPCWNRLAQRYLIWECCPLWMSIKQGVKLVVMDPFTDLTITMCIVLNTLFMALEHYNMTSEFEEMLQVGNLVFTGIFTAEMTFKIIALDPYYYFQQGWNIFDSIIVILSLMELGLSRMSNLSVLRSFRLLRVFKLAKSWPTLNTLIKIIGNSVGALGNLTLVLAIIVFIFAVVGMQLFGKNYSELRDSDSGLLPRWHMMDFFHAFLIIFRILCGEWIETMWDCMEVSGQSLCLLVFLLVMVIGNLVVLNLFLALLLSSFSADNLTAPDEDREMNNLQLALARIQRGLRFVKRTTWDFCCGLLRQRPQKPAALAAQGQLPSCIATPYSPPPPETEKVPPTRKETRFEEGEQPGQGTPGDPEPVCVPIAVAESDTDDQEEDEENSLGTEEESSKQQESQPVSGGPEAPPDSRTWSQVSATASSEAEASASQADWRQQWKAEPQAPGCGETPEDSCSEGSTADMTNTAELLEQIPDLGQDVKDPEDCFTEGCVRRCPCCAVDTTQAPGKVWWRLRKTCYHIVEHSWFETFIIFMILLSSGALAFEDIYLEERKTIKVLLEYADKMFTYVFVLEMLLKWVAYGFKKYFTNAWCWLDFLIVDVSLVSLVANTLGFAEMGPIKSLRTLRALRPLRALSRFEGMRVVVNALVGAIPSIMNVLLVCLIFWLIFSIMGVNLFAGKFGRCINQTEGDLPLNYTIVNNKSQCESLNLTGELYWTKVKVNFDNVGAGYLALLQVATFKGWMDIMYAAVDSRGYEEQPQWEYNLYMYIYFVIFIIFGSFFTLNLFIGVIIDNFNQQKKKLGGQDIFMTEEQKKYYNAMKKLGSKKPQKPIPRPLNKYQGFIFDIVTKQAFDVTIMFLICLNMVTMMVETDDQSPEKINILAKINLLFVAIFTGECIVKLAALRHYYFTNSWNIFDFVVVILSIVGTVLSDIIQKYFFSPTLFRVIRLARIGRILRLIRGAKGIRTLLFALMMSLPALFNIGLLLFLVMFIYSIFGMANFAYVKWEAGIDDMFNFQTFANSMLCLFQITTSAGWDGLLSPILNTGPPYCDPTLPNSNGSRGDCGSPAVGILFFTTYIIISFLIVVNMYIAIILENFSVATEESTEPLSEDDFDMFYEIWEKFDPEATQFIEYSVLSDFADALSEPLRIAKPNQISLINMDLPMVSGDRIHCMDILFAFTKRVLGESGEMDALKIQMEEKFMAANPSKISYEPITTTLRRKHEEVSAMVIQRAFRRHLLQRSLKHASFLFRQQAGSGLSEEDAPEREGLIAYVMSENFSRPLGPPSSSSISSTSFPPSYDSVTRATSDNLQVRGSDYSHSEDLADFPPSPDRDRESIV

[2] = biological target: T1, wild-type human cardiac sodium channel, hNav1.5; experiment: Peak INa screening assay (tonic block TB and use-dependent block UDB of peak sodium current); format: cell-based; settings: compound at 10 μM
[3] = tonic block, read-out: Tonic Peak INa % blk
[4] = use-dependent block, read-out: UDB Peak INa % blk

Sequence of hERG potassium channel (Q12809 whole entry): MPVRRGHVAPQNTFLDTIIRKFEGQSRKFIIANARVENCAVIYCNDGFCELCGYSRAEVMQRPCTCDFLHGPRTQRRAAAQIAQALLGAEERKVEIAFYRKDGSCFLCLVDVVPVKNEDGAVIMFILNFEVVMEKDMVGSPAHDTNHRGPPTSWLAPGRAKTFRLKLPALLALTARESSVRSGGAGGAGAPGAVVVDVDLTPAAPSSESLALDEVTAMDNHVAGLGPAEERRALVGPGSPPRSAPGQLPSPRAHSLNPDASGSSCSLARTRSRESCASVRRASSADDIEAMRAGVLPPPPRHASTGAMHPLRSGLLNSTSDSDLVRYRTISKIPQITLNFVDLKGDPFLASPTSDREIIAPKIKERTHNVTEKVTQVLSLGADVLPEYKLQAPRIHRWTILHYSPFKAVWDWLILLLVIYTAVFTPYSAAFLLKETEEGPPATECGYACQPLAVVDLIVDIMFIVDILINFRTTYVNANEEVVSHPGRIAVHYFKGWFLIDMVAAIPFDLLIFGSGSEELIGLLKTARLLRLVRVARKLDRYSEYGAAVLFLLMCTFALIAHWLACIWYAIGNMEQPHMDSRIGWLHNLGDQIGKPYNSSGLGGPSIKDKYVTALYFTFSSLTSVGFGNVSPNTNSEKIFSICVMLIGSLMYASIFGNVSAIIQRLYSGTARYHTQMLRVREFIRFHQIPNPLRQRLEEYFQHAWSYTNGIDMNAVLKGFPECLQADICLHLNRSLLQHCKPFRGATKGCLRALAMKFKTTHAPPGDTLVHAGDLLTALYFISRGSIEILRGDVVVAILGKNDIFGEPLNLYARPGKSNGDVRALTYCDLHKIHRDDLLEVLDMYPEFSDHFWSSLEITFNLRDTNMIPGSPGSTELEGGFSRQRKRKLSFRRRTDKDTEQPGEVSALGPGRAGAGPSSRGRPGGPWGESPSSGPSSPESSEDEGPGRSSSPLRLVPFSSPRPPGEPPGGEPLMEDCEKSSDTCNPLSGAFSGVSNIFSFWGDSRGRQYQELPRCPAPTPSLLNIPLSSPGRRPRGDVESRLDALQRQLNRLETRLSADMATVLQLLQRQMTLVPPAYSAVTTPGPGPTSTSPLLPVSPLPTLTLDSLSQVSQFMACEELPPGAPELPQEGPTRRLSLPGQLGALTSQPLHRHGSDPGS

Compound	hERG Patch Clamp hERG % blk (hERG potassium channel; 1 μM) [%]	hERG Patch Clamp hERG % blk (hERG potassium channel; 10 μM) [%]	inhibition at 10 µM [1] [%]	inhibition at 10 µM [2, 3] [%]	inhibition at 10 µM [2, 4] [%]
COc1cc(Cl)ccc1COC(=O)C1=C(C)Nc2nnnn2C1c1c(C)cccc1C (stereo not shown) [PT-307, 4-chloro-2-methoxybenzyl 7-(2,6-dimethylphenyl)-5-methyl-4,7-dihydrotetrazolo[1,5-a]pyrimidine-6-carboxylate]	10.0	62.5	84.9	14	16.6
CCOC(=O)C1=C(CC)NC(CC)=C(C(=O)OCC)C1c1ccc(Br)s1 [PT-181, diethyl 4-(5-bromothiophen-2-yl)-2,6-diethyl-1,4-dihydropyridine-3,5-dicarboxylate]	10.5	73.0	91.7	76.5	–
CCOC(=O)C1=C(C)NC(C)=C(C(=O)OCC)C1c1ccc2ccccc2c1 [PT-107, diethyl 2,6-dimethyl-4-(naphthalen-2-yl)-1,4-dihydropyridine-3,5-dicarboxylate]	11.5	48.0	91.9	25.9	–
CCOC(=O)C1=C(C)NC(C)=C(C(=O)OCC)C1c1csc2ccccc12 [PT-115, diethyl 4-(benzo[b]thiophen-3-yl)-2,6-dimethyl-1,4-dihydropyridine-3,5-dicarboxylate]	–	50.3	86	17.2	–
CC1=C(C(=O)OC2CCc3ccccc32)C(c2cccc3ccccc23)n2nnnc2N1 (stereo not shown) [PT-062, 2,3-dihydro-1H-inden-1-yl 5-methyl-7-(naphthalen-1-yl)-4,7-dihydrotetrazolo[1,5-a]pyrimidine-6-carboxylate]	14.0	51.0	60.2	7.9	–
CC1=C(C(=O)OCc2ccccc2)C(c2cccc3ccccc23)n2nnnc2N1C (stereo not shown) [PT-195, benzyl 4,5-dimethyl-7-(naphthalen-1-yl)-4,7-dihydrotetrazolo[1,5-a]pyrimidine-6-carboxylate]	12.5	49.0	52.7	1.7	–
COc1cc(Cl)ccc1COC(=O)C1=C(C)Nc2nnnn2C1c1c(Cl)cccc1Cl (stereo not shown) [PT-306, 4-chloro-2-methoxybenzyl 7-(2,6-dichlorophenyl)-5-methyl-4,7-dihydrotetrazolo[1,5-a]pyrimidine-6-carboxylate]	10.0	48.5	70.4	20.1	9
CC1=C(C(=O)OCc2ccccc2)C(c2cccc3ccccc23)n2nnnc2N1 (stereo not shown) [PT-027, benzyl 5-methyl-7-(naphthalen-1-yl)-4,7-dihydrotetrazolo[1,5-a]pyrimidine-6-carboxylate]	14.0	64.5	74.9	29.7	6.8
CC1=C(C(=O)OCc2ccccc2)C(c2nccs2)c2cn[nH]c2N1 (stereo not shown) [PT-369, benzyl 6-methyl-4-(thiazol-2-yl)-4,7-dihydro-1H-pyrazolo[3,4-b]pyridine-5-carboxylate]	10.0	25.0	47.3	26.3	13.5
CC1=C(C(=O)OC(C)C)C(c2cccc3ccccc23)C(C(=O)OC(C)C)=C(C)N1 [PT-123, diisopropyl 2,6-dimethyl-4-(naphthalen-1-yl)-1,4-dihydropyridine-3,5-dicarboxylate]	10.0	30.5	86.9	7	–
C=CCOC(=O)C1=C(C)Nc2nnnn2C1c1cccc2ccccc12 (stereo not shown) [PT-319, allyl 5-methyl-7-(naphthalen-1-yl)-4,7-dihydrotetrazolo[1,5-a]pyrimidine-6-carboxylate]	10.0	41.0	55.7	4.5	–
CC1=C(C(=O)OCc2ccccc2)C(c2ccccc2N2CCN(C)CC2)n2nnnc2N1 (stereo not shown) [PT-340, benzyl 5-methyl-7-(2-(4-methylpiperazin-1-yl)phenyl)-4,7-dihydrotetrazolo[1,5-a]pyrimidine-6-carboxylate]	57.0	93.5	71.9	89.1	–
N#CC1=C(N)OC2=C(C(=O)CCC2)C1c1ccsc1 (stereo not shown) [PT-100, 2-amino-5-oxo-4-(thiophen-3-yl)-5,6,7,8-tetrahydro-4H-chromene-3-carbonitrile]	10.0	16.5	-12.1	4	–
N#CC1=C(N)OC2=C(C(=O)CC(c3ccccc3)C2)C1c1cccs1 (stereo not shown) [PT-101, 2-amino-5-oxo-7-phenyl-4-(thiophen-2-yl)-5,6,7,8-tetrahydro-4H-chromene-3-carbonitrile]	19.0	67.5	49.3	2.9	–
CCOC(=O)C1=C(C)N(C)C(C)=C(C(=O)OCC)C1c1cccc2ccccc12 [PT-191, diethyl 1,2,6-trimethyl-4-(naphthalen-1-yl)-1,4-dihydropyridine-3,5-dicarboxylate]	26.5	68.0	63.2	0	–
CC1=C(C(=O)N2CCC(c3ccc(C(=O)O)cc3)CC2)C(c2cccc3ccccc23)C2=C(CCCC2=O)N1 (stereo not shown) [PT-173, 4-(1-(2-methyl-4-(naphthalen-1-yl)-5-oxo-1,4,5,6,7,8-hexahydroquinoline-3-carbonyl)piperidin-4-yl)benzoic acid]	12.0	37.0	52.6	0	–
CC1=C(C(=O)OCc2ccccc2)C(c2ccccc2N2CCN(S(C)(=O)=O)CC2)n2nnnc2N1 (stereo not shown) [PT-339, benzyl 5-methyl-7-(2-(4-(methylsulfonyl)piperazin-1-yl)phenyl)-4,7-dihydrotetrazolo[1,5-a]pyrimidine-6-carboxylate]	11.5	43.5	51.4	22.2	9
CC1=C(C(=O)OCc2ccccc2)C(c2cc3ccccc3o2)n2nnnc2N1 (stereo not shown) [PT-045, benzyl 7-(benzofuran-2-yl)-5-methyl-4,7-dihydrotetrazolo[1,5-a]pyrimidine-6-carboxylate]	10.0	70.0	92	23.8	–
CC1=C(C(=O)OCc2ccccc2)C(c2ccccc2-c2cccc(NS(C)(=O)=O)c2)n2nnnc2N1 (stereo not shown) [PT-348, benzyl 5-methyl-7-(3′-(methylsulfonamido)biphenyl-2-yl)-4,7-dihydrotetrazolo[1,5-a]pyrimidine-6-carboxylate]	10.0	38.5	71.6	17.2	–
CC1=C(C(=O)OC(C)Cc2ccccc2)C(c2cccc3ccccc23)n2nnnc2N1 (stereo not shown) [PT-064, 1-phenylpropan-2-yl 5-methyl-7-(naphthalen-1-yl)-4,7-dihydrotetrazolo[1,5-a]pyrimidine-6-carboxylate]	20.5	37.5	79.5	7.2	–
CC1=C(C(=O)OCc2ccccc2)C(c2ccc3ccccc3c2)c2c(C)n[nH]c2N1 (stereo not shown) [PT-325, benzyl 3,6-dimethyl-4-(naphthalen-2-yl)-4,7-dihydro-1H-pyrazolo[3,4-b]pyridine-5-carboxylate]	10.0	36.0	53.8	19.9	24.3
CCOC(=O)C1=C(C)NC(C)=C(C(=O)OCC)C1c1ccc(CC)s1 [PT-113, diethyl 4-(5-ethylthiophen-2-yl)-2,6-dimethyl-1,4-dihydropyridine-3,5-dicarboxylate]	11.0	57.3	88.6	30.4	–
CC1=C(C(=O)OCc2ccccc2)C(c2c(-c3ccc(C(=O)O)cc3)sc3ccccc23)n2nnnc2N1 (stereo not shown) [PT-294, 4-(3-(6-(benzyloxycarbonyl)-5-methyl-4,7-dihydrotetrazolo[1,5-a]pyrimidin-7-yl)benzo[b]thiophen-2-yl)benzoic acid]	12.5	15.5	67.2	24.4	–
N#CC1=C(N)OC2=C(C(=O)CCC2)C1c1ccc(Br)cc1 (stereo not shown) [PT-096, 2-amino-4-(4-bromophenyl)-5-oxo-5,6,7,8-tetrahydro-4H-chromene-3-carbonitrile]	15.0	48.0	5.5	-0.4	–
CC1=C(C(=O)OCc2ccccc2)C(c2cccs2)n2nnnc2N1 (stereo not shown) [PT-040, benzyl 5-methyl-7-(thiophen-2-yl)-4,7-dihydrotetrazolo[1,5-a]pyrimidine-6-carboxylate]	14.5	24.5	70.8	9.9	–
CCOC(=O)C1=C(C)Nc2nc(C#N)c(C#N)n2C1c1cccc2ccccc12 (stereo not shown) [PT-194, ethyl 2,3-dicyano-7-methyl-5-(naphthalen-1-yl)-5,8-dihydroimidazo[1,2-a]pyrimidine-6-carboxylate]	25.0	91.0	76.1	19.1	–
